# Measured values: patent US11000033B2, “Ketone or oxime compound, and herbicide” (NISSAN CHEMICAL CORPORATION, priority 2014, dated 2021)
# Assays:
# Format in all cases: in vivo
# [1] = test system: directly sowed rice plant; test: Test Example 3: effect on crop by foliage application, Wagner pot (symbol b); details: application herbicide amount 320 g/ha
# Experimental: (§1) Herbicidal Effect Test by Foliage Application
# After alluvial soil was placed into 1/10000 are of Wagner pot, water was poured and mixed to form a submerged condition having a water depth of 0.1 cm to 0.5 cm. Seeds of Echinochloa crus-galli var. crus-galli, Leptochloa chinensis, Cyperus difformis, and rice were sowed and the pot was placed in the greenhouse of 25° C. to 30° C. to grow the plants.
# [2] = test system: Echinochloa crus-galli var. crus-galli; test: Test Example 3: herbicidal effect by foliage application, Wagner pot (symbol H); details: application herbicide amount 320 g/ha
# Experimental: as §1
# (§2) After alluvial soil was placed into 1/10000 are of Wagner pot, water was poured and mixed to form a submerged condition having a water depth of 0.1 cm to 0.5 cm. Seeds of Echinochloa crus-galli var. crus-galli, Leptochloa chinensis, Cyperus difformis, and rice were sowed and the pot was placed in the greenhouse of 25° C. to 30° C. to grow the plants. After the plants were grown for 14 days, the emulsion agent of the compound of the present invention prepared in accordance with Formulation Example 2 was diluted with water so as to be a predetermined herbicide amount and the diluted emulsion agent was uniformly applied to a foliage part with a small-size spray. 3 weeks later from the herbicide application, the effect to each plant was investigated in accordance with the criteria of Test Example 1.
# [3] = test system: Cyperus difformis; test: Test Example 3: herbicidal effect by foliage application, Wagner pot (symbol E); details: application herbicide amount 320 g/ha
# Experimental: as §1, §2
# [4] = test system: Leptochloa chinensis; test: Test Example 3: herbicidal effect by foliage application, Wagner pot (symbol D); details: application herbicide amount 320 g/ha
# Experimental: as §1, §2
# [5] = test system: wheat; test: Test Example 5: effect on crop by foliage application, plastic box (symbol e); details: 320 g/ha, 3 weeks after application
# Text: as §1
# (§3) Sterilized diluvial soil was placed in a plastic box having a length of 21 cm, a width of 13 cm, and a depth of 7 cm. Each of the seeds of Digitaria ciliaris, Setaria viridis, Echinochloa crus-galli var. crus-galli, Avena fatua, Alopecurus myosuroides, Lolium multiflorum Lam., Apera spica-venti, Abutilon theophrasti, Amaranthus retroflexus, Chenopodium album, Stellaria media, Galium spurium, Veronica persica, corn, soybean, rice plant, wheat, beet, and rapeseed was sowed in a spot-like manner and was covered with the soil of a thickness of about 1.5 cm. Thereafter, the plants were grown in the greenhouse of 25° C. to 30° C.
# [6] = test system: Alopecurus myosuroides; test: Test Example 5: herbicidal effect by foliage application, plastic box (symbol J); details: 320 g/ha, 3 weeks after application
# Text: as §1
# as §3, with “30° C. After the plants were grown for 14 days, the emulsion agent of the compound of the present invention prepared in accordance with Formulation Example 2 was diluted with water so as to be a predetermined herbicide amount and the diluted emulsion agent was uniformly applied to a foliage part with a small-size spray. 3 weeks later from the herbicide application, the effect to each plant was investigated in accordance with the criteria of Test Example 1.” for “30° C.”
# [7] = test system: Stellaria media; test: Test Example 5: herbicidal effect by foliage application, plastic box (symbol P); details: 320 g/ha, 3 weeks after application
# Text: as §1
# as §3, with “30° C. After the plants were grown for 14 days, the emulsion agent of the compound of the present invention prepared in accordance with Formulation Example 2 was diluted with water so as to be a predetermined herbicide amount and the diluted emulsion agent was uniformly applied to a foliage part with a small-size spray. 3 weeks later from the herbicide application, the effect to each plant was investigated in accordance with the criteria of Test Example 1.” for “30° C.”
# [8] = test system: Setaria viridis; test: Test Example 5: herbicidal effect by foliage application, plastic box (symbol G); details: 320 g/ha, 3 weeks after application
# Text: as §1
# as §3, with “30° C. After the plants were grown for 14 days, the emulsion agent of the compound of the present invention prepared in accordance with Formulation Example 2 was diluted with water so as to be a predetermined herbicide amount and the diluted emulsion agent was uniformly applied to a foliage part with a small-size spray. 3 weeks later from the herbicide application, the effect to each plant was investigated in accordance with the criteria of Test Example 1.” for “30° C.”
# [9] = test system: Chenopodium album; test: Test Example 5: herbicidal effect by foliage application, plastic box (symbol O); details: 320 g/ha, 3 weeks after application
# Text: as §1
# as §3, with “30° C. After the plants were grown for 14 days, the emulsion agent of the compound of the present invention prepared in accordance with Formulation Example 2 was diluted with water so as to be a predetermined herbicide amount and the diluted emulsion agent was uniformly applied to a foliage part with a small-size spray. 3 weeks later from the herbicide application, the effect to each plant was investigated in accordance with the criteria of Test Example 1.” for “30° C.”
# [10] = test system: Amaranthus retroflexus; test: Test Example 5: herbicidal effect by foliage application, plastic box (symbol N); details: 320 g/ha, 3 weeks after application
# Text: as §1
# as §3, with “30° C. After the plants were grown for 14 days, the emulsion agent of the compound of the present invention prepared in accordance with Formulation Example 2 was diluted with water so as to be a predetermined herbicide amount and the diluted emulsion agent was uniformly applied to a foliage part with a small-size spray. 3 weeks later from the herbicide application, the effect to each plant was investigated in accordance with the criteria of Test Example 1.” for “30° C.”
# [11] = test system: soybean; test: Test Example 5: effect on crop by foliage application, plastic box (symbol d); details: 320 g/ha, 3 weeks after application
# Text: as §1, §3
# [12] = test system: Echinochloa crus-galli var. crus-galli; test: Test Example 5: herbicidal effect by foliage application, plastic box (symbol H); details: 320 g/ha, 3 weeks after application
# Text: as §1
# as §3, with “30° C. After the plants were grown for 14 days, the emulsion agent of the compound of the present invention prepared in accordance with Formulation Example 2 was diluted with water so as to be a predetermined herbicide amount and the diluted emulsion agent was uniformly applied to a foliage part with a small-size spray. 3 weeks later from the herbicide application, the effect to each plant was investigated in accordance with the criteria of Test Example 1.” for “30° C.”
# [13] = test system: Apera spica-venti; test: Test Example 5: herbicidal effect by foliage application, plastic box (symbol L); details: 320 g/ha, 3 weeks after application
# Text: as §1
# as §3, with “30° C. After the plants were grown for 14 days, the emulsion agent of the compound of the present invention prepared in accordance with Formulation Example 2 was diluted with water so as to be a predetermined herbicide amount and the diluted emulsion agent was uniformly applied to a foliage part with a small-size spray. 3 weeks later from the herbicide application, the effect to each plant was investigated in accordance with the criteria of Test Example 1.” for “30° C.”
# [14] = test system: Digitaria ciliaris; test: Test Example 5: herbicidal effect by foliage application, plastic box (symbol F); details: 320 g/ha, 3 weeks after application
# Text: as §1
# as §3, with “30° C. After the plants were grown for 14 days, the emulsion agent of the compound of the present invention prepared in accordance with Formulation Example 2 was diluted with water so as to be a predetermined herbicide amount and the diluted emulsion agent was uniformly applied to a foliage part with a small-size spray. 3 weeks later from the herbicide application, the effect to each plant was investigated in accordance with the criteria of Test Example 1.” for “30° C.”
# [15] = test system: beet; test: Test Example 5: effect on crop by foliage application, plastic box (symbol f); details: 320 g/ha, 3 weeks after application
# Text: as §1, §3
# [16] = test system: Lolium multiflorum Lam.; test: Test Example 5: herbicidal effect by foliage application, plastic box (symbol K); details: 320 g/ha, 3 weeks after application
# Text: as §1
# as §3, with “30° C. After the plants were grown for 14 days, the emulsion agent of the compound of the present invention prepared in accordance with Formulation Example 2 was diluted with water so as to be a predetermined herbicide amount and the diluted emulsion agent was uniformly applied to a foliage part with a small-size spray. 3 weeks later from the herbicide application, the effect to each plant was investigated in accordance with the criteria of Test Example 1.” for “30° C.”
# [17] = test system: Avena fatua; test: Test Example 5: herbicidal effect by foliage application, plastic box (symbol I); details: 320 g/ha, 3 weeks after application
# Text: as §1
# as §3, with “30° C. After the plants were grown for 14 days, the emulsion agent of the compound of the present invention prepared in accordance with Formulation Example 2 was diluted with water so as to be a predetermined herbicide amount and the diluted emulsion agent was uniformly applied to a foliage part with a small-size spray. 3 weeks later from the herbicide application, the effect to each plant was investigated in accordance with the criteria of Test Example 1.” for “30° C.”
# [18] = test system: Veronica persica; test: Test Example 5: herbicidal effect by foliage application, plastic box (symbol R); details: 320 g/ha, 3 weeks after application
# Text: as §1
# as §3, with “30° C. After the plants were grown for 14 days, the emulsion agent of the compound of the present invention prepared in accordance with Formulation Example 2 was diluted with water so as to be a predetermined herbicide amount and the diluted emulsion agent was uniformly applied to a foliage part with a small-size spray. 3 weeks later from the herbicide application, the effect to each plant was investigated in accordance with the criteria of Test Example 1.” for “30° C.”
# [19] = test system: rapeseed; test: Test Example 5: effect on crop by foliage application, plastic box (symbol g); details: 320 g/ha, 3 weeks after application
# Text: as §1, §3
# [20] = test system: Abutilon theophrasti; test: Test Example 5: herbicidal effect by foliage application, plastic box (symbol M); details: 320 g/ha, 3 weeks after application
# Text: as §1
# as §3, with “30° C. After the plants were grown for 14 days, the emulsion agent of the compound of the present invention prepared in accordance with Formulation Example 2 was diluted with water so as to be a predetermined herbicide amount and the diluted emulsion agent was uniformly applied to a foliage part with a small-size spray. 3 weeks later from the herbicide application, the effect to each plant was investigated in accordance with the criteria of Test Example 1.” for “30° C.”
# [21] = test system: rice plant; test: Test Example 5: effect on crop by foliage application, plastic box (symbol b); details: 320 g/ha, 3 weeks after application
# Text: as §1, §3
# [22] = test system: corn; test: Test Example 5: effect on crop by foliage application, plastic box (symbol c); details: 320 g/ha, 3 weeks after application
# Text: as §1, §3
structure (smiles),measurement,setting,value
CON=C(CCl)CC1CC(O)=C(c2c(C)cc(C)cc2C)C1=O (stereo not drawn) [1-084],"effect on crop b (directly sowed rice plant), grade 0-5",[1],1 (Herbicidal ratio of 5% or higher and lower than 20%)
same,"herbicidal effect on H (Echinochloa crus-galli var. crus-galli), grade 0-5",[2],2 (Herbicidal ratio of 20% or higher and lower than 40%)
same,"herbicidal effect on E, grade 0-5",[3],0 (Herbicidal ratio of 5% or lower (almost no effect))
same,"herbicidal effect on D (Leptochloa chinensis), grade 0-5",[4],0 (Herbicidal ratio of 5% or lower (almost no effect))
CC(=O)CC1CC(O)=C(c2c(C)cc(OCc3ccncc3)cc2C)C1=O (stereo not drawn) [7-021],"effect on crop b (directly sowed rice plant), grade 0-5",[1],0 (Herbicidal ratio of 5% or lower (almost no effect))
same,"herbicidal effect on H (Echinochloa crus-galli var. crus-galli), grade 0-5",[2],2 (Herbicidal ratio of 20% or higher and lower than 40%)
same,"herbicidal effect on E, grade 0-5",[3],0 (Herbicidal ratio of 5% or lower (almost no effect))
same,"herbicidal effect on D (Leptochloa chinensis), grade 0-5",[4],2 (Herbicidal ratio of 20% or higher and lower than 40%)
CON=C(C)CC1CC(O)=C(c2c(C)cc(OCc3ccncc3)cc2C)C1=O (stereo not drawn) [6-070],"effect on crop b (directly sowed rice plant), grade 0-5",[1],0 (Herbicidal ratio of 5% or lower (almost no effect))
same,"herbicidal effect on H (Echinochloa crus-galli var. crus-galli), grade 0-5",[2],0 (Herbicidal ratio of 5% or lower (almost no effect))
same,"herbicidal effect on E, grade 0-5",[3],0 (Herbicidal ratio of 5% or lower (almost no effect))
same,"herbicidal effect on D (Leptochloa chinensis), grade 0-5",[4],4 (Herbicidal ratio of 70% or higher and lower than 90%)
CCC(C(C)=O)(C(=O)OC)C1CC(O)=C(c2c(C)cc(C)cc2C)C1=O (stereo not drawn) [2-023],"e: wheat, effect on crop grade",[5],0 (Herbicidal ratio of 5% or lower (almost no effect))
same,"J: Alopecurus myosuroides, herbicidal effect grade",[6],0 (Herbicidal ratio of 5% or lower (almost no effect))
same,"P: Stellaria media, herbicidal effect grade",[7],0 (Herbicidal ratio of 5% or lower (almost no effect))
same,"G: Setaria viridis, herbicidal effect grade",[8],0 (Herbicidal ratio of 5% or lower (almost no effect))
same,"O: Chenopodium album, herbicidal effect grade",[9],0 (Herbicidal ratio of 5% or lower (almost no effect))
same,"N: Amaranthus retroflexus, herbicidal effect grade",[10],0 (Herbicidal ratio of 5% or lower (almost no effect))
same,"d: soybean, effect on crop grade",[11],0 (Herbicidal ratio of 5% or lower (almost no effect))
same,"H: Echinochloa crus-galli var. crus-galli, herbicidal effect grade",[12],1 (Herbicidal ratio of 5% or higher and lower than 20%)
same,"L: Apera spica-venti, herbicidal effect grade",[13],0 (Herbicidal ratio of 5% or lower (almost no effect))
same,"F: Digitaria ciliaris, herbicidal effect grade",[14],0 (Herbicidal ratio of 5% or lower (almost no effect))
same,"f: beet, effect on crop grade",[15],0 (Herbicidal ratio of 5% or lower (almost no effect))
same,"K: Lolium multiflorum Lam., herbicidal effect grade",[16],1 (Herbicidal ratio of 5% or higher and lower than 20%)
same,"I: Avena fatua, herbicidal effect grade",[17],0 (Herbicidal ratio of 5% or lower (almost no effect))
same,"R: Veronica persica, herbicidal effect grade",[18],0 (Herbicidal ratio of 5% or lower (almost no effect))
same,"g: rapeseed, effect on crop grade",[19],0 (Herbicidal ratio of 5% or lower (almost no effect))
same,"M: Abutilon theophrasti, herbicidal effect grade",[20],0 (Herbicidal ratio of 5% or lower (almost no effect))
same,"b: directly sowed rice plant, effect on crop grade",[21],3 (Herbicidal ratio of 40% or higher and lower than 70%)
same,"c: corn, effect on crop grade",[22],0 (Herbicidal ratio of 5% or lower (almost no effect))
CON=C(C)CC1CC(OC(=S)N(C)C)=C(c2c(C)cc(C)cc2C)C1=O (stereo not drawn) [1-141],"effect on crop b (directly sowed rice plant), grade 0-5",[1],1 (Herbicidal ratio of 5% or higher and lower than 20%)
same,"herbicidal effect on H (Echinochloa crus-galli var. crus-galli), grade 0-5",[2],2 (Herbicidal ratio of 20% or higher and lower than 40%)
same,"herbicidal effect on D (Leptochloa chinensis), grade 0-5",[4],0 (Herbicidal ratio of 5% or lower (almost no effect))
